Assay [1] relates to Rattus norvegicus. Nature of the assay: Effect on nitrogen balance in Wistar rat diabetic model assessed as residual urinary nitrogen at 10 mg/day, ip for 6 days measured 6 hrs after last dose relative to non-diabetic control. The format is functional, Urine.
Assay [2] concerns Rattus norvegicus. Nature of the assay: Effect on nitrogen balance in Wistar rat diabetic model assessed as absorbed nitrogen at 10 mg/day, ip for 6 days measured 6 hrs after last dose relative to non-diabetic control. The format is functional.
The subject of assay [3] is Rattus norvegicus. Nature of the assay: Effect on nitrogen balance in Wistar rat diabetic model assessed as residual fecal nitrogen at 10 mg/day, ip for 6 days measured 6 hrs after last dose relative to non-diabetic control. In kind it is functional, Feces.
In assay [4] the test system is Rattus norvegicus. The experiment in a line: Effect on nitrogen balance in Wistar rat diabetic model assessed as residual fecal nitrogen at 10 mg/day, ip for 6 days measured 6 hrs after last dose relative to diabetic control. The format is functional, Feces.
For assay [5], the system named is Rattus norvegicus. Nature of the assay: Effect on nitrogen balance in Wistar rat diabetic model assessed as absorbed nitrogen at 10 mg/day, ip for 6 days measured 6 hrs after last dose relative to diabetic control. The format is functional.
The subject of assay [6] is Rattus norvegicus. The experiment in a line: Effect on nitrogen balance in Wistar rat diabetic model assessed as residual urinary nitrogen at 10 mg/day, ip for 6 days measured 6 hrs after last dose relative to diabetic control. In kind it is functional, Urine.
The subject of assay [7] is Rattus norvegicus. The experiment in a line: Effect on nitrogen balance in Wistar rat diabetic model assessed as retained nitrogen at 10 mg/day, ip for 6 days measured 6 hrs after last dose relative to non-diabetic control. The format is functional.
Assay [8] has as its system Rattus norvegicus. The experiment in a line: Effect on nitrogen balance in Wistar rat diabetic model assessed as retained nitrogen at 10 mg/day, ip for 6 days measured 6 hrs after last dose relative to diabetic control. The format is functional.

The record followed here is ChEMBL document CHEMBL1147323, “The effect of ginsenoside-Rb2 on nitrogen balance” (1989).

The structures appear in SMILES notation.

Regarding `CC(C)=CCC[C@](C)(O[C@@H]1O[C@H](CO[C@@H]2OC[C@H](O)[C@H](O)[C@H]2O)[C@@H](O)[C@H](O)[C@H]1O)[C@H]1CC[C@]2(C)[C@@H]1[C@H](O)C[C@@H]1[C@@]3(C)CC[C@H](O[C@@H]4O[C@H](CO)[C@@H](O)[C@H](O)[C@H]4O[C@@H]4O[C@H](CO)[C@@H](O)[C@H](O)[C@H]4O)C(C)(C)[C@@H]3CC[C@]12C` [GINSENOSIDE RB2], the Activity was 223% in assay [1]; 225% in assay [2]; 186% in assay [3]; 93% in assay [4]; 104% in assay [5]; 75% in assay [6]. Besides, the Activity in assay [7] was 313%; in assay [8], 415%.
